# Biological target: T1, human S1P1 receptor (Homo sapiens, UniProt P21453)
# T1 construct: expressed in transfected cells; membranes were used
# Test: GTP γ35S binding assay for S1P1 activity
# Type: biochemical
# Conditions: activity potency from GTP γ35S binding; membranes of cells stably expressing the S1P1 receptor; 30 min at 25° C.
# Protocol: Compounds were synthesized and tested for S1P1 activity using the GTP γ^35S binding assay. These compounds may be assessed for their ability to activate or block activation of the human S1P1 receptor in cells stably expressing the S1P1 receptor. […] binding was measured in the medium containing (mM) HEPES 25, pH 7.4, MgCl2 10, NaCl 100, dithitothreitol 0.5, digitonin 0.003%, 0.2 nM GTP γ^35S, and 5 μg membrane protein in a volume of 150 μl. Test compounds were included in the concentration range from 0.08 to 5,000 nM unless indicated otherwise. Membranes were incubated with 100 μM 5′-adenylylimmidodiphosphate for 30 min, and subsequently with 10 μM GDP for 10 min on ice. Drug solutions and membrane were mixed, and then reactions were initiated by adding GTP γ^35S and continued for 30 min at 25° C. Reaction mixtures were filtered over Whatman GF/B filters under vacuum, and washed three times with 3 mL of ice-cold buffer (HEPES 25, pH7.4, MgCl2 10 and NaCl 100). Filters were dried and mixed with scintillant, and counted for ^35S activity using a […]. Agonist-induced GTP γ^35S binding was obtained by subtracting that in the absence of agonist. Binding data were analyzed using a non-linear regression method. In case of antagonist assay, the reaction mixture contained 10 nM S1P in the presence of test antagonist at concentrations ranging from 0.08 to 5000 nM.
# T1 sequence (P21453 whole entry): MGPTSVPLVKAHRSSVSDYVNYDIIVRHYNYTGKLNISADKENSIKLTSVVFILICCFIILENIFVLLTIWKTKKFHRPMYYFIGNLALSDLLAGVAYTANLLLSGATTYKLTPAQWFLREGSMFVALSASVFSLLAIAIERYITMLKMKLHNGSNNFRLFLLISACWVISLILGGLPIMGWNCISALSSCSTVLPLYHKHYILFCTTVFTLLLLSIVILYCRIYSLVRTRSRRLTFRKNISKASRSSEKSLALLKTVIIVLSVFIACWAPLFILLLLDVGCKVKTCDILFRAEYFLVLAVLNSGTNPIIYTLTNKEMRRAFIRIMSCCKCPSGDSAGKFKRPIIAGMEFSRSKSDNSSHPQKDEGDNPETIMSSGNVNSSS
row,EC50,SMILES
1,0.00421 µM,"Cc1ccc(/C=C(\CCCOc2ccc(CN3CC(C(=O)O)C3)cc2)c2cc(F)cc(F)c2)cc1C [Compound 6, 1-(4-{[(4E)-4-(3,5-Difluorophenyl)-5-(3,4-dimethylphenyl)pent-4-en-1-yl]oxy}benzyl)azetidine-3-carboxylic acid]"
2,0.158 µM,Cc1ccc(/C=C(\CCC[S+]([O-])c2ccc(CN3CC(C(=O)O)C3)cc2)c2cc(F)cc(F)c2)cc1C (stereo not drawn) [Compound 7]

# More lines, now with the values behind:
row,SMILES,EC50
1,"Cc1ccc(/C=C(\CCCCSc2ccc(CN3CC(C(=O)O)C3)cc2)c2cc(F)cc(F)c2)cc1C [Compound 4, 1-(4-{[(5E)-5-(3,5-difluorophenyl)-6-(3,4-dimethylphenyl)hex-5-en-1-yl]sulfanyl}benzyl)azetidine-3-carboxylic acid]",0.652 µM
2,"Cc1ccc(C=C(CCCOc2ccc(CN3CC(C(=O)O)C3)cc2)c2ccsc2)cc1C [1-(4-{[5-(3,4-dimethylphenyl)-4-(3-thienyl)pent-4-en-1-yl]oxy}benzyl)azetidine-3-carboxylic acid]",0.036 µM
3,"Cc1ccc(/C=C(\CCCOc2ccc(CN3CC(C(=O)O)C3)cc2)c2cccc(Cl)c2)cc1C [Compound 5, 1-(4-{[(4E)-4-(3-Chlorophenyl)-5-(3,4-dimethylphenyl)pent-4-en-1-yl]oxy}benzyl)azetidine-3-carboxylic acid]",0.0279 µM
4,"Cc1ccc(/C=C(\CCCOc2ccc(CN3CC(C(=O)O)C3)cc2)c2cccc(F)c2F)cc1C [Compound 1, 1-(4-{[(4E)-4-(2,3-Difluorophenyl)-5-(3,4-dimethylphenyl)pent-4-en-1-yl]oxy}benzyl)azetidine-3-carboxylic acid]",0.48 µM

# — patent US8871755B2, “Alkene azetidine derivatives as sphingosine 1-phosphate (S1P) receptor modulators” (Allergan, Inc., priority 2013, dated 2014)
